From PMC6591251, “Discovery of potent necroptosis inhibitors targeting RIPK1 kinase activity for the treatment of inflammatory disorder and cancer metastasis” (Cell Death & Disease, 2019)
pEC50: −log10 of the molar value. ≈ marks a conversion by molar mass, not a printed value. Read-outs that look alike come from different tables or passages of the source.

Assays:
[1] = tested on: HT-29 cells; experiment: TNF-induced necroptosis (TNFα/Smac mimetic/z-VAD), cell viability by ATP levels; type: cell-based, human; conditions: for EC50: T/S/Z 48 h, read-out: EC50(nM) HT-29
Experimental: Necroptosis is tightly regulated by RIP kinases including RIPK1 and RIPK3. To develop new necroptosis inhibitors, we screened a small-molecule library of around 240 potential kinase inhibitors that were designed with novel structures to affect the ATP-binding pocket of protein kinases. Human colon cancer HT-29 cells were treated with these compounds for […], followed by treatment with necroptotic stimuli (TNFα, Smac mimetic, and z-VAD) that are known to activate TNF-mediated necroptosis. After 48 h, cell viability was analyzed by monitoring ATP levels.
Fig. 1 PK6 efficiently blocks TNF-α induced necroptosis in both human and mouse cells. a HT-29 cells cultured in 96-well plates were pretreated with the indicated compounds (10 μM) from a library consisting of ~240 compounds that we designed with novel structures for 1 h and subsequently treated with 40 ng/ml TNF-α (T), 100 nM Smac mimetic (S), and the caspase inhibitor 20 μM z-VAD(Z) for 48 h. Cell viability was assessed by measuring ATP levels. Data are represented as the mean ± standard deviation of duplicates. b Chemical structure of PK6. c Dose response curve and EC50 ± SD value for PK6 in TNF-α induced necroptosis in HT-29 cells. Cells were pretreated with indicated concentrations of PK6 for 1 h prior to the treatment with T (40 ng/ml), S (100 nM), and Z (20 μM) for 48 h. Cell viability was assessed by measuring ATP levels. d U937 cells were pretreated with indicated concentrations of PK6 for 1 h followed by the treatment with T (40 ng/ml), S (100 nM), and Z (20 μM) for 24 h. e MEF cells were pretreated with indicated concentrations of PK6 for 1 h followed by the treatment with T (40 ng/ml), S (100 nM), and Z (20 μM) for 24 h. f L929 cells were pretreated with indicated concentrations of PK6 for 1 h prior to the treatment with S (100 nM) and Z (20 μM) for 24 h.
Fig. 2 Chemical optimization of PK6 leads to improvements in anti-necroptotic activity. a, b The effects of the indicated compounds on cell viability were examined in HT-29 cells (a) and L929 cells (b). HT-29 cells were treated as indicate for 48 h and L929 cells for 24 h. Cell viability was assessed by measuring ATP levels. Data are represented as the mean ± standard deviation of triplicates. c Structure and EC50 ± SD value of each compound are shown in the table. EC50 values are the average of at least two independent determinations. d Lead optimization of PK6 TEXT PRINTED IN THE PICTURE: (c) PK6: EC50(nM) HT-29: 1200±53; EC50(nM) L929: 760±26 | (c) PK67: EC50(nM) HT-29: 250±6.3; EC50(nM) L929: 130±6.8 | (c) PK81: EC50(nM) HT-29: 120±7.6; EC50(nM) L929: 20±0.98 | (c) PK84: EC50(nM) HT-29: 97±6.7; EC50(nM) L929: 45±2.1 | (c) PK93: EC50(nM) HT-29: 130±36; EC50(nM) L929: 30±7.4 | (c) PK86: EC50(nM) HT-29: 73±3.9; EC50(nM) L929: 15±1.0 | (c) PK68: EC50(nM) HT-29: 23±1.4; EC50(nM) L929: 13±0.85
(§1) The cell viability was analyzed by using the CellTiter-Glo Luminescent Cell Viability Assay kit following the manufacturer’s instructions (Promega). Luminescence was measured with SpectraMax i3x (Molecular Devices).

[2] = biological target: T1, mouse RIPK1 (Mus musculus, UniProt Q60855); experiment: In vitro kinase activity assay (ADP-Glo); type: biochemical; conditions: recombinant mouse RIPK1
T1 construct: purchased SignalChem
Experimental: (§2) Having shown that PK6 and PK68 can inhibit activation of both RIPK1 and RIPK3 during TNF-mediated necroptosis, we sought to determine if PK6 and PK68 can directly target RIPK1 or and RIPK3 by performing in vitro kinase assays. Both PK6 and PK68 were able to block the kinase activities of both human RIPK1 and mouse RIPK1 in vitro (Fig. 4a and Supplementary Fig. 19).
(§3) The recombinant RIPK1 or RIPK3 protein was incubated with DMSO or the indicated compound for 15 min in the assay buffer (25 mM HEPES pH 7.2, 20 mM MgCl2, 12.5 mM MnCl2, 12.5 mM β-glycerol phosphate, 5 mM EGTA, 2 mM EDTA, and 2 mM DTT). Then, ATP (50 μM) and the substrate MBP (20 μM) were added to the reaction at room temperature for 120 min. The luminescence was measured to calculate the kinase activity after the addition of the ADP-Glo Kinase Assay kit following the manufacturer’s instructions (Promega).
Supplementary Figure 19. Both PK6 and PK68 were able to block the kinase activity of mouse RIPK1 in vitro.
In vitro kinase activity assays using recombinant mouse RIPK1 were performed. Recombinant proteins were incubated with PK6(A) and PK68(B) as indicated. Data represent mean value ±standard deviation.

[3] = biological target: T2, RIPK3 (Homo sapiens, UniProt Q9Y572); experiment: In vitro kinase activity assay (ADP-Glo); type: biochemical; conditions: even at a 1000 nM concentration
T2 construct: purchased Reaction Biology Corporation
Experimental: as §2
Recombinant proteins were incubated with PK6 and PK68 as indicated. […] NIH3T3-RIPK3 cells were pretreated with indicated compounds for 1 h and subsequently treated with T (40 ng/ml)/S (100 nM)/Z (20 μM) or AP20187 (100 nM) for 24 h. Cell viability was determined by measuring ATP levels. e PK6 and PK68 have no effect on MLKL dimerization-induced cell death in HeLa-MLKL (1–190) cells that stably express MLKL (1–190aa) fused to DmrB. HeLa-MLKL (1–190) cells were pretreated with indicated compounds for 1 h and subsequently treated with AP20187 (100 nM) for 24 h. Cell viability was determined by measuring ATP levels. […]
as §3, with “Then, ATP (50 μM) and the substrate MBP (20 μM) were added to the reaction at room temperature for 120 min.” left out

[4] = tested on: NIH3T3-RIPK3 cells; experiment: TNF-induced necroptosis (T/S/Z); type: cell-based, mouse; conditions: T/S/Z 24 h
Experimental: Recombinant proteins were incubated with PK6 and PK68 as indicated. […] NIH3T3-RIPK3 cells were pretreated with indicated compounds for 1 h and subsequently treated with T (40 ng/ml)/S (100 nM)/Z (20 μM) or AP20187 (100 nM) for 24 h. Cell viability was determined by measuring ATP levels. e PK6 and PK68 have no effect on MLKL dimerization-induced cell death in HeLa-MLKL (1–190) cells that stably express MLKL (1–190aa) fused to DmrB. HeLa-MLKL (1–190) cells were pretreated with indicated compounds for 1 h and subsequently treated with AP20187 (100 nM) for 24 h. Cell viability was determined by measuring ATP levels.
as §1

[5] = Solubility in FaSSIF, LC/MS/MS; type: physicochemical; conditions: for solubility: pH= 6.5 FaSSIF, LC/MS/MS, duplicates
Experimental: ^a Calculated by ACDlabs. ^b Data are measured duplicates in pH= 6.5 FaSSIF using LC/MS/MS. ^c Data are determined three times by SMP10 melting point apparatus.

T2 sequence (Q9Y572 whole entry): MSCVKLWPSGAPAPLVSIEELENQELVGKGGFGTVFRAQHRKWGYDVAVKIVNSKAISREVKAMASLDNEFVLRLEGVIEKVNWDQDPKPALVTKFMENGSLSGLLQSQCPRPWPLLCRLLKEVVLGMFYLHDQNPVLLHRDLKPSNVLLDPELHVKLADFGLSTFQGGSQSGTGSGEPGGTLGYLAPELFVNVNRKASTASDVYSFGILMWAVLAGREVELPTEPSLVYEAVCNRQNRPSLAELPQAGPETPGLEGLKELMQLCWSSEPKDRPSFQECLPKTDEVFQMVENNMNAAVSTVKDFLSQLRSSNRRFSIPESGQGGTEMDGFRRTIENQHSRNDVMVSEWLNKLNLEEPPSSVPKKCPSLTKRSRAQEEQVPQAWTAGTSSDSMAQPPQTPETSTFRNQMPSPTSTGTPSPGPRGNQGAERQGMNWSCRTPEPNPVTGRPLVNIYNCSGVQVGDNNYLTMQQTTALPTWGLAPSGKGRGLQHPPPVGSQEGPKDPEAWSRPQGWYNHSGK
T1 sequence (Q60855 whole entry): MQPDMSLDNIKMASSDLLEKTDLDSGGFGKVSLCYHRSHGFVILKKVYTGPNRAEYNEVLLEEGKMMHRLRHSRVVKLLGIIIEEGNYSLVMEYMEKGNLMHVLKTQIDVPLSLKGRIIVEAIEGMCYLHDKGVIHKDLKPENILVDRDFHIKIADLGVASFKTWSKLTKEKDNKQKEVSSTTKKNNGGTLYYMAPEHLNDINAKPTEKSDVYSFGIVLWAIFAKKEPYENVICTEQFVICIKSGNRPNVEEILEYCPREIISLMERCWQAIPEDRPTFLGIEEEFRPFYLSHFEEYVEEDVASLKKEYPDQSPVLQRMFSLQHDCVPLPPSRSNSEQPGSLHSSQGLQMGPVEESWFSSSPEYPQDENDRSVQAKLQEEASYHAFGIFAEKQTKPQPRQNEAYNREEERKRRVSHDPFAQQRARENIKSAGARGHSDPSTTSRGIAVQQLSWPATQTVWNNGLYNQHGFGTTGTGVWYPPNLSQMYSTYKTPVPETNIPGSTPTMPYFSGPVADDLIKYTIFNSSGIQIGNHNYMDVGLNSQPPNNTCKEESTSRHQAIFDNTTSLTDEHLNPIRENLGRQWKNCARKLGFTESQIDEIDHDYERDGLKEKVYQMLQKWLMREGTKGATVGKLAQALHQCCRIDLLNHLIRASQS

With `CC(=O)Nc1nc2ccc(-c3cnc(Cl)c(NC(=O)Cc4ccccc4)c3)cc2s1` [PK6, N-(5-(2-acetamidobenzo[d]thiazol-6-yl)-2-chloropyridin-3-yl)-2-phenylacetamide] the pEC50 ([1]; Homo sapiens, HT-29, 48 h, T 40 ng/ml, S 100 nM, Z 20 μM, 48 h, read-out: EC50, TNF-induced necroptosis) was roughly 5.92, the “kinase activity of mouse RIPK1 in vitro” value [2] was “able to block” and the RIPK3 kinase activity [3] was “neither PK6 nor PK68 affected RIPK3 kinase activity”. The “TNF-induced necroptosis in NIH3T3-RIPK3 cells” value [4] was “inhibit”, the “solubility (in words)” value [5] was “poor” and the solubility [5] was 0.09 µg/mL (≈ 0.206 µM).
With `CC(=O)Nc1nc2ccc(-c3cnc(C)c(NC(=O)OC4CCCCC4)c3)cc2s1` [PK68, cyclohexyl (5-(2-acetamidobenzo[d]thiazol-6-yl)-2-methylpyridin-3-yl)carbamate] the EC50 ([1]; Homo sapiens, HT-29, 48 h) was 23 nM, the EC50 [1] was roughly 20 nM and the “kinase activity of mouse RIPK1 in vitro” value [2] was “able to block”. The RIPK3 kinase activity [3] was “neither PK6 nor PK68 affected RIPK3 kinase activity”, the “TNF-induced necroptosis in NIH3T3-RIPK3 cells” value [4] was “inhibit” and the solubility [5] was 0.56 µg/mL (≈ 1.32 µM).
